Source: US9266883B2, “Ring-fused bicyclic pyridyl derivatives as FGFR4 inhibitors” (Novartis AG, priority 2013, dated 2016)
Where two headings read alike, the source gives them in different places.

Legend:
[1] = target: FGFR4 (GST-FGFR4(388-802)) (Homo sapiens (Human), UniProt P22455); experiment: In-vitro biochemical kinase assay for FGFR4 (Caliper microfluidic mobility shift)
Tel-FGFR4 = Tel-FGFR4 (Homo sapiens (Human), UniProt P22455); experiment: In vitro cellular kinase assay for FGFR4 (BaF3-Tel-FGFR4 cells, MSD capture ELISA of tyrosine phosphorylation); assay type: cell-based
[2] = read-out: Biochemical FGFR4 IC50
[3] = BaF3-Tel-FGFR4 cells, 1 hour incubation, read-out: Cellular BaF3 FGFR4 IC50
[4] = biochemical FGFR4 assay, read-out: Biochemical IC50
[5] = Cellular BaF3 FGFR4 assay, read-out: Cellular IC50

Chain of FGFR4 (GST-FGFR4(388-802)) (P22455 388-802): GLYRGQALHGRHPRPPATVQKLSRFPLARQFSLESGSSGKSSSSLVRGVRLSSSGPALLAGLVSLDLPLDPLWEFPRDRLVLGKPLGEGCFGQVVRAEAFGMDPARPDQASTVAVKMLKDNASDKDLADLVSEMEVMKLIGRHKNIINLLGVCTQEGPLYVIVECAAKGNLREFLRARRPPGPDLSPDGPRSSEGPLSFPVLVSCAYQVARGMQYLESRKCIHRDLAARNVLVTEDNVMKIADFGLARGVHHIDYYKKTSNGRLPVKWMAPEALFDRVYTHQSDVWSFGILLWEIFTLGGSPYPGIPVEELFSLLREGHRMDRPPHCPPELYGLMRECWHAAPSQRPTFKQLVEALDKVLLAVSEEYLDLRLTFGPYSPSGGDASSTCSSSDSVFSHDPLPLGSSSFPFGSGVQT
Chain of Tel-FGFR4 (P22455 other isoform, or with tags, fused parts or gaps): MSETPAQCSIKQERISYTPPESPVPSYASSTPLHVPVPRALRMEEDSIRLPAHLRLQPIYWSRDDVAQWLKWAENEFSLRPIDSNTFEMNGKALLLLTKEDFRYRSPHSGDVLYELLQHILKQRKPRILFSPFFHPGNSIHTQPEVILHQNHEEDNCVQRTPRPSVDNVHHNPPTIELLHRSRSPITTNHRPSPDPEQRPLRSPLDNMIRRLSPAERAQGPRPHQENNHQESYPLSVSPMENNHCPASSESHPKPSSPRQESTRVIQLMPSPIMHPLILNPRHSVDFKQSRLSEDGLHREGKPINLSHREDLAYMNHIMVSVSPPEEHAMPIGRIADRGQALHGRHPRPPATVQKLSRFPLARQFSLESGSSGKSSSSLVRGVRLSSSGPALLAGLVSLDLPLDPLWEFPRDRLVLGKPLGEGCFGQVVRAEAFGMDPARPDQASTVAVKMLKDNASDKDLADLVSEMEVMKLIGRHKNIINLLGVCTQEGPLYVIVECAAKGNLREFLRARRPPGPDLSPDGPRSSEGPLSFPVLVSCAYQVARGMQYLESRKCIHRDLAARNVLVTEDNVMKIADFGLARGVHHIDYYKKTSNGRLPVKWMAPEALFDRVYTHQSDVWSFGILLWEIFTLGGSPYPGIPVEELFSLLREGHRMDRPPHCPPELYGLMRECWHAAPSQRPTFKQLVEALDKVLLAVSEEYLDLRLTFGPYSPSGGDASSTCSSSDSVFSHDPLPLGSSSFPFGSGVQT

| Structure (SMILES) | IC50 [1, 2] | IC50 (Tel-FGFR4; [3]) | IC50 [1, 4] | IC50 (Tel-FGFR4; [5]) |
| --- | --- | --- | --- | --- |
| COCCNc1cc(NC(=O)N2CCCc3cc(-c4cn(C)nc4C)c(C=O)nc32)ncc1C#N [Example 250, N-(5-cyano-4-((2-methoxyethyl)amino)pyridin-2-yl)-6-(1,3-dimethyl-1H-pyrazol-4-yl)-7-formyl-3,4-dihydro-1,8-naphthyridine-1(2H)-carboxamide] | 6.7 nM | 14.5 nM |  |  |
| CN1CCN(Cc2cc3c(nc2C=O)N(C(=O)Nc2cc(OCCF)c(C#N)cn2)CCC3)C(=O)C1 [N-(5-cyano-4-(2-fluoroethoxyl)pyridin-2-yl)-7-formyl-6-((4-methyl-2-oxopiperazin-1-yl)methyl)-3,4-dihydro-1,8-naphthyridine-1(2H)-carboxamide] |  |  | 2.4 nM | 7.1 nM |
| N#Cc1cnc(NC(=O)N2CCCc3cc(C(F)F)c(C=O)nc32)cc1NCCO [N-(5-cyano-4-((2-hydroxyethyl)amino)pyridin-2-yl)-6-(difluoromethyl)-7-formyl-3,4-dihydro-1,8-naphthyridine-1(2H)-carboxamide] |  |  | 1 nM | 5.5 nM |
| COC(C)CNc1cc(NC(=O)N2CCCc3cc(C(F)F)c(C=O)nc32)ncc1C#N (centres unmarked) [N-(5-cyano-4-((2-methoxypropyl)amino)pyridin-2-yl)-6-(difluoromethyl)-7-formyl-3,4-dihydro-1,8-naphthyridine-1(2H)-carboxamide] |  |  | 1.1 nM | 18.8 nM |
| CCc1cc(NC(=O)N2CCCc3cc(CN4CCN(C)CC4=O)c(C=O)nc32)ncc1C#N [N-(5-cyano-4-ethylpyridin-2-yl)-7-formyl-6-((4-methyl-2-oxopiperazin-1-yl)methyl)-3,4-dihydro-1,8-naphthyridine-1(2H)-carboxamide] |  |  | 8.9 nM | 22.5 nM |
| CCC(=O)N(C)Cc1cc2c(nc1C=O)N(C(=O)Nc1cc(NCCOC)c(C#N)cn1)CCC2 [N-(5-cyano-4-((2-methoxyethyl)amino)pyridin-2-yl)-7-formyl-6-((N-methylpropionamido)methyl)-3,4-dihydro-1,8-naphthyridine-1(2H)-carboxamide] |  |  | 0.6 nM | 4 nM |
| CCN(Cc1cc2c(nc1C=O)N(C(=O)Nc1cc(NC)c(C#N)cn1)CCC2)C(=O)CN(C)C [N-(5-cyano-4-(methylamino)pyridin-2-yl)-6-((2-(dimethylamino)-N-ethylacetamido)methyl)-7-formyl-3,4-dihydro-1,8-naphthyridine-1(2H)-carboxamide] |  |  | 12 nM | 13 nM |
| COCCNc1cc(NC(=O)N2CCCc3cc(CN(C)C(=O)CN(C)C)c(C=O)nc32)ncc1C#N [N-(5-cyano-4-((2-methoxyethyl)amino)pyridin-2-yl)-6-((2-(dimethylamino)-N-methylacetamido)methyl)-7-formyl-3,4-dihydro-1,8-naphthyridine-1(2H)-carboxamide] |  |  | 0.2 nM | 6.1 nM |
| COC[C@@H](C)Nc1cc(NC(=O)N2CCCc3cc(C(F)F)c(C=O)nc32)ncc1C#N [(R)-N-(5-cyano-4-((1-methoxypropan-2-yl)amino)pyridin-2-yl)-6-(difluoromethyl)-7-formyl-3,4-dihydro-1,8-naphthyridine-1(2H)-carboxamide] |  |  | 1.2 nM | 19 nM |
| O=Cc1nc2c(cc1CO)CCCN2C(=O)Nc1ncc(Cl)c(O[C@H]2CCOC2)n1 [Example 69, (S)-N-(5-chloro-4-((tetrahydrofuran-3-yl)oxy)pyrimidin-2-yl)-7-formyl-6-(hydroxymethyl)-3,4-dihydro-1,8-naphthyridine-1(2H)-carboxamide] | 54 nM | 95 nM |  |  |
| CN1CCN(Cc2cc3c(nc2C=O)N(C(=O)Nc2cc(OCC(F)F)c(C#N)cn2)CCC3)C(=O)C1 [N-(5-cyano-4-(2,2-difluoroethoxyl)pyridin-2-yl)-7-formyl-6-((4-methyl-2-oxopiperazin-1-yl)methyl)-3,4-dihydro-1,8-naphthyridine-1(2H)-carboxamide] |  |  | 1.2 nM | 6.7 nM |
| COC[C@H](C)Nc1cc(NC(=O)N2CCCc3cc(CN(C)C(C)=O)c(C=O)nc32)ncc1C#N [(S)-N-(5-cyano-4-((1-methoxypropan-2-yl)amino)pyridin-2-yl)-7-formyl-6-((N-methylacetamido)methyl)-3,4-dihydro-1,8-naphthyridine-1(2H)-carboxamide] |  |  | 1 nM | 4.2 nM |
| COc1cc(NC(=O)N2CCCc3cc(CN4CCN(C)CC4=O)c(C=O)nc32)ncc1C#N [N-(5-cyano-4-methoxypyridin-2-yl)-7-formyl-6-((4-methyl-2-oxopiperazin-1-yl)methyl)-3,4-dihydro-1,8-naphthyridine-1(2H)-carboxamide] |  |  | 4.8 nM | 10.2 nM |
| CCNc1cc(NC(=O)N2CCCc3cc(CN(CC)C(=O)CN(C)C)c(C=O)nc32)ncc1C#N [N-(5-cyano-4-(ethylamino)pyridin-2-yl)-6-((2-(dimethylamino)-N-ethylacetamido)methyl)-7-formyl-3,4-dihydro-1,8-naphthyridine-1(2H)-carboxamide] |  |  | 0.2 nM | 10.2 nM |
| CC(C)Oc1cc(NC(=O)N2c3nc(C=O)ccc3CCC2C)ncc1C#N (centres unmarked) [N-(5-cyano-4-isopropoxypyridin-2-yl)-7-formyl-2-methyl-3,4-dihydro-1,8-naphthyridine-1(2H)-carboxamide] |  |  | 0.9 nM | 328 nM |
| CC(=O)N(C)Cc1cc2c(nc1C=O)N(C(=O)Nc1cc(SC(C)C)c(C#N)cn1)CCC2 [Example 240, N-(5-cyano-4-(isopropylthio)pyridin-2-yl)-7-formyl-6-((N-methylacetamido)methyl)-3,4-dihydro-1,8-naphthyridine-1(2H)-carboxamide] | < 0.1 nM | 11.1 nM |  |  |
| COCCNc1cc(NC(=O)N2CCCc3cc(CN4CCNC(C)(C)C4=O)c(C=O)nc32)ncc1C#N [N-(5-cyano-4-((2-methoxyethyl)amino)pyridin-2-yl)-6-((3,3-dimethyl-2-oxopiperazin-1-yl)methyl)-7-formyl-3,4-dihydro-1,8-naphthyridine-1(2H)-carboxamide] |  |  | 0.1 nM | 5.9 nM |
| CC(C)(O)CNc1cc(NC(=O)N2CCCc3cc(CO)c(C=O)nc32)ncc1C#N [Example 86, N-(5-cyano-4-((2-hydroxy-2-methylpropyl)amino)pyridin-2-yl)-7-formyl-6-(hydroxymethyl)-3,4-dihydro-1,8-naphthyridine-1(2H)-carboxamide] | 4.9 nM | 12 nM |  |  |
| COCCNc1cc(NC(=O)N2CCCc3cc(-c4ccncc4)c(C=O)nc32)ncc1C#N [N-(5-cyano-4-((2-methoxyethyl)amino)pyridin-2-yl)-7-formyl-6-(pyridin-4-yl)-3,4-dihydro-1,8-naphthyridine-1(2H)-carboxamide] |  |  | 3.1 nM | 14.5 nM |
| CN1CCN(Cc2cc3c(nc2C=O)N(C(=O)Nc2cc(NC(C)(C)C)c(C#N)cn2)CCC3)C(=O)C1 [N-(4-(tert-butylamino)-5-cyanopyridin-2-yl)-7-formyl-6-((4-methyl-2-oxopiperazin-1-yl)methyl)-3,4-dihydro-1,8-naphthyridine-1(2H)-carboxamide] |  |  | 1.8 nM | 11.5 nM |
| COC[C@@H](C)Nc1cc(NC(=O)N2CCCc3cc(CN(C)C(C)=O)c(C=O)nc32)ncc1C#N [(R)-N-(5-cyano-4-((1-methoxypropan-2-yl)amino)pyridin-2-yl)-7-formyl-6-((N-methylacetamido)methyl)-3,4-dihydro-1,8-naphthyridine-1(2H)-carboxamide] |  |  | 1.8 nM | 4.5 nM |
| N#Cc1cnc(NC(=O)N2CCCc3ccc(C=O)nc32)cc1C1=CCOCC1 [Example 30, N-(5-cyano-4-(3,6-dihydro-2H-pyran-4-yl)pyridin-2-yl)-7-formyl-3,4-dihydro-1,8-naphthyridine-1(2H)-carboxamide] | 5.5 nM | 428 nM |  |  |
| COCCNc1cc(NC(=O)N2CCCc3cc(CN4CC[N+](C)([O-])CC4=O)c(C=O)nc32)ncc1C#N (centres unmarked) [Example 222, 4-((8-((5-cyano-4-((2-methoxyethyl)amino)pyridin-2-yl)carbamoyl)-2-formyl-5,6,7,8-tetrahydro-1,8-naphthyridin-3-yl)methyl)-1-methyl-3-oxopiperazine 1-oxide] | < 4.8 nM | 41.3 nM |  |  |
| CC(C)(O)CNc1cc(NC(=O)N2CCCc3cc(C(F)F)c(C=O)nc32)ncc1C#N [N-(5-cyano-4-((2-hydroxy-2-methylpropyl)amino)pyridin-2-yl)-6-(difluoromethyl)-7-formyl-3,4-dihydro-1,8-naphthyridine-1(2H)-carboxamide] |  |  | 1.6 nM | 10.3 nM |
| CC(C)Oc1cc(NC(=O)N2CCCc3cc(CN4CCN(C)CC4)c(C=O)nc32)ncc1C#N [N-(5-cyano-4-isopropoxypyridin-2-yl)-7-formyl-6-((4-methylpiperazin-1-yl)methyl)-3,4-dihydro-1,8-naphthyridine-1(2H)-carboxamide] |  |  | 3 nM | 55.5 nM |
| CC(C)COc1cc(NC(=O)N2CCCc3cc(C(F)F)c(C=O)nc32)ncc1C#N [N-(5-cyano-4-isobutoxypyridin-2-yl)-6-(difluoromethyl)-7-formyl-3,4-dihydro-1,8-naphthyridine-1(2H)-carboxamide] |  |  | 30 nM | 139 nM |
| CC(C)Oc1cc(NC(=O)N2CCCc3cc(CN4CCNC(=O)C4)c(C=O)nc32)ncc1C#N [N-(5-cyano-4-isopropoxypyridin-2-yl)-7-formyl-6-((3-oxopiperazin-1-yl)methyl)-3,4-dihydro-1,8-naphthyridine-1(2H)-carboxamide] |  |  | 1.6 nM | 23.5 nM |
| COCCNc1cc(NC(=O)N2CCCc3cc(-c4sc(C)nc4C)c(C=O)nc32)ncc1C#N [N-(5-cyano-4-((2-methoxyethyl)amino)pyridin-2-yl)-6-(2,4-dimethylthiazol-5-yl)-7-formyl-3,4-dihydro-1,8-naphthyridine-1(2H)-carboxamide] |  |  | 9.5 nM | 21 nM |
